{"source": "patent US10660318B2", "about": "“Non-mammalian RAS transgenic animal model” (Tosk, Inc., priority 2013, dated 2020)", "tested_on": "mutated kRAS/kRAS x MS1096 fly (human kRAS G12V expressed in the wing)", "assay": "Screening for drugs that reverse the wing phenotype of the mutated kRAS/kRAS x MS1096 fly", "assay_type": "in vivo, Drosophila", "conditions": "for rescue from the crumpled/kringled wing phenotype: 10 μM test article in fly food, embryos to adults, 25° C., 14 days, FIG. 8", "experimental": "Male mutated kRAS/kRAS flies were bred overnight with female MS1096/GAL4 flies in a fly condo^2 with a grape agar plate floor. The resulting embryos were gently dislodged from the grape agar plate using a squirt bottle containing 0.7% NaCl, 0.03% Triton X-100 In distilled water. The embryos were counted and then dissolved in a solution containing 14.4% sucrose, 0.7% NaCl and 0.05% Triton to give a concentration of 15 embryos/10 μL of solution. ^2 Sullivan W, Ashburner M, Hawley, S R, Drosophila Protocols 2000, Cold Spring Harbor Laboratory Press, pp 541-551.\nThe test article, 1-benzyl-2-phenyl-1H-benzo[d]imidazole which is a deltarasin analog with activity againsy RAS signaling,^1 was dissolved in DMSO to give a concentration of 10 mM. The deltarasin analog inhibitor was synthesized at the Tosk facility. Four μL of this solution, 100 μL of the embryo solution (150 embryos), ½ teaspoon blue fly food (North Carolina, catalogue number 173216) and 4 ml of water were combined in a vial (VWR, catalogue number 89092-720) and capped (VWR, catalogue number 89168-886). Using the recipe provided above, the final concentration of test article in the mixture was 10 μM.\nThe vials were placed in a 25° C. incubator for 14 days after which they. were examined for the percentage of flies with crumpled/kringled wings. […] The goal for screening chemicals for anti-kRAS activity is to achieve in the kRAS mutant fly the rescue from the crumpled/kringled wing phenotype achieved with the deltarasin analog.", "key": {"[1]": {"conditions": "flies rescued by treatment with a test article, compared with control and kRAS mutant flies"}}}
{"smiles": "c1ccc(Cn2c(-c3ccccc3)nc3ccccc32)cc1", "note": "[test article, 1-benzyl-2-phenyl-1H-benzo[d]imidazole]", "values": [{"measurement": "rescue from the crumpled/kringled wing phenotype", "value": "significantly less crumpled/kringled although still non-functional"}, {"measurement": "rescue from the crumpled/kringled wing phenotype", "setting": "listed as deltarasin analog", "value": "rescued"}, {"measurement": "typical appearance of wings: vein-free region (Rescued)", "setting": "compared with the same regions in kRAS mutant flies", "value": "Vein-free region is considerably"}, {"measurement": "ability to take flight (Rescued)", "setting": "[1]", "value": "Unable to take flight"}, {"measurement": "typical appearance of wings: position relative to fly body in idle state (Rescued)", "setting": "[1]", "value": "Wings tend to be parallel to the fly"}, {"measurement": "typical appearance of wings: size and shape (Rescued)", "setting": "[1]", "value": "Medium, semi-flat and less crinkled"}, {"measurement": "typical appearance of wings: transparency (Rescued)", "setting": "[1]", "value": "Slightly translucent wings"}, {"measurement": "typical appearance of wings: wing veins (Rescued)", "setting": "[1]", "value": "Slightly aberrant wing “veins.”"}]}
